Results reported in patent publication EP0153203A1, “C10-C20-Branched-chain fatty acids useful as medicaments and the preparation thereof” (PIERRE FABRE MEDICAMENT, priority 1984, dated 1985).

System: oedème généralisé au dextran
Test: generalized dextran oedema test (anti-inflammatory activity, oral, rat)
Assay type: in vivo

Compound	propriétés anti-inflammatoires (test de l'oedème généralisé au dextran) (solution à 1 % dans l'huile d'arachide, voie orale chez le rat, by action on the vascular phase and decrease of platelet aggregation)	activité anti-inflammatoire (même type) (administration par voie orale chez le rat, concentration and vehicle not stated)
CC(C)CCCCCCCCCCC(=O)O [acide isomyristique, acide méthyl-12 tridécanoTque]	propriétés anti-inflammatoires marquées	
CCC(C)CCCCCCCCCC(=O)O (centres unmarked) [acide antéisomyristique, acide méthyl-11 tridécanoique]		Le même type d'activité anti-inflammatoire a été mis en évidence
